6 compounds from patent US4187373A, “Novel dihydrobenzanthracene derivatives” (American Cyanamid Company, priority 1978, dated 1980) can be followed below.

Several values for one entry are separate records, joined by “and”; a condition that tells them apart may be missing. Equal values may be shown once. Where a name gives a salt, the structure may show the parent alone.

Experiment [1] relates to lymphocytic leukemia P388. Briefly: Lymphocytic Leukemia P388 Test. The experiment is classed as in vivo, mice. How it is done: The animals used are mice all of one sex, weighing a minimum of 17 g. and all within a 3 gram weight range. There are 5 or 6 animals per test group. The tumor transplant is by intraperitoneal injection of 0.1 ml. or 0.5 ml. of dilute ascitic fluid containing 10^6 cells of lymphocytic leukemia P388. The test compounds are administered intraperitoneally on days one, 5 and 9 (relative to tumor inoculation) at various doses. The animals are weighed and survivors are recorded on a regular basis for 30 days. The median survival time and the ratio of survival time for treated (T)/control (C) animals are calculated. […] The results of this test with representative compounds of the present invention appear in Table II below. The criterion for efficacy is T/C×100≥125%.

The test system of experiment [2] is melanotic melanoma B16 tumor. Put plainly: Melanotic Melanoma B16. The experiment is classed as in vivo, C57BC/6 mice. On the procedure:
The animals used are C57BC/6 mice, all of the same sex, weighing a minimum of 17 g. and all within a 3 g. weight range. There are normally 10 animals per test group. A one-gram portion of melanotic melanoma B16 tumor is homogenized in 10 ml. of cold balanced salt solution and a 0.5 ml. aliquot of the homogenate is implanted intraperitoneally into each of the test mice. The test compounds are administered intraperitoneally on days one through 9 (relative to tumor inoculation) at various doses. The animals are weighed and survivors are recorded on a regular basis for 60 days. The median survival time and the ratio of survival time for treated (T)/control (C) animals are calculated. The positive control compound is 5-fluorouracil given as a 20 mg./kg. injection. The results of this test with a representative compound of the present invention appear in Table III below. The criterion for efficacy is T/C×100≥125%.

The subject of experiment [3] is Staphylococcus aureus, OSU 75-2. Put plainly: antibacterial activity in vitro, agar-dilution streak-plate technique. The experiment is classed as cell-based. The note with it: OSU752, 37° C. for 18 hours, read-out: minimal inhibitory concentration (MIC). On the procedure: (§1) The antibacterial spectrum in terms of the concentration required to inhibit the growth of various typical bacteria was determined in a standard manner by the agar-dilution streak-plate technique. A Steers multiple inocula replicator was used with incubation at 37° C. for 18 hours in Mueller-Ninton agar. The results for 7,12-bis-(2-imidazolin-2-ylhydrazone)benz[a]anthracene-7,12-dicarboxaldehyde dihydrochloride, a typical compound of this invention, are set forth in Table I as the minimal inhibitory concentration (MIC) in micrograms per milliliter.

Experiment [4] has as its system Staphylococcus aureus, Q 74-11. Described as above. The experiment is classed as cell-based. The following applies: Q7411, 37° C. for 18 hours, read-out: minimal inhibitory concentration (MIC). On the procedure:
as §1

In experiment [5] the test system is Enterococcus, SM 77-15. The experiment is described as above. The experiment is classed as cell-based. The note with it: SM7715, 37° C. for 18 hours, read-out: minimal inhibitory concentration (MIC). How it is done:
as §1

The test system of experiment [6] is Staphylococcus aureus, St. Paul (NYC 78-1). The experiment is described as above. The experiment is classed as cell-based. The following applies: 37° C. for 18 hours, read-out: minimal inhibitory concentration (MIC). How it is done: as §1
Where [7] appears, read: P388, positive control, dose 40 mg./kg.
Where [8] appears, read: P388, positive control, dose 60 mg./kg.
Where [9] appears, read: B16, positive control, dose 20 mg./kg.
Setting [10] is: P388, dose 0.78 mg./kg. intraperitoneally on days one, 5 and 9.
The mark [11] stands for this setting: P388, dose 1.56 mg./kg. intraperitoneally on days one, 5 and 9, dihydrochloride.
The mark [12] stands for this setting: P388, dose 3.12 mg./kg. intraperitoneally on days one, 5 and 9, dihydrochloride.
Where [13] appears, read: P388, dose 6.25 mg./kg. intraperitoneally on days one, 5 and 9, dihydrochloride.
Setting [14] is: P388, dose 12.5 mg./kg. intraperitoneally on days one, 5 and 9, dihydrochloride.
The mark [15] stands for this setting: P388, dose 25 mg./kg. intraperitoneally on days one, 5 and 9, dihydrochloride.
Setting [16] is: B16, dose 0.2 mg./kg. intraperitoneally on days one through 9.
Setting [17] is: B16, dose 0.5 mg./kg. intraperitoneally on days one through 9.
The mark [18] stands for this setting: B16, dose 1.5 mg./kg. intraperitoneally on days one through 9.
Where [19] appears, read: B16, dose 3 mg./kg. intraperitoneally on days one through 9.
[20] abbreviates: P388, dose 1.56 mg./kg. intraperitoneally on days one, 5 and 9.
Setting [21] is: P388, dose 3.12 mg./kg. intraperitoneally on days one, 5 and 9.
[22] abbreviates: P388, dose 6.25 mg./kg. intraperitoneally on days one, 5 and 9.
[23] abbreviates: P388, dose 12.5 mg./kg. intraperitoneally on days one, 5 and 9.
Where [24] appears, read: P388, dose 25 mg./kg. intraperitoneally on days one, 5 and 9.

For the compound `O=c1[nH]cc(F)c(=O)[nH]1` [5-Fluorouracil, 5-fluorouracil, reference compound], the “Median Survival” value in experiment [1] (setting [7]) is 18 days and 18.5 days; in experiment [1] (setting [8]) it was 12.5 days and 20.0 days; in experiment [2] (setting [9]) it was 25.5 days. Also, the “T/C × 100 (Percent)” value in experiment [1] (setting [7]) is 164% and 154%; in experiment [1] (setting [8]) it was 109% and 200%; in experiment [2] (setting [9]) it was 155%.
As for `C(=NNC1=NCCN1)C1c2ccccc2C(C=NNC2=NCCN2)c2c1ccc1ccccc21` (stereo not drawn) [Bis(2-imidazolin-2-ylhydrazone) of 7,12-dihydrobenz[a]anthracene-7,12-dicarboxaldehyde dihydrochloride], the “Median Survival” value was 13.0 days in experiment [1] (setting [10]); 13.5 days in experiment [1] (setting [11]); 16.5 days in experiment [1] (setting [12]); 16.5 days in experiment [1] (setting [13]); 17.5 days in experiment [1] (setting [14]); 17 days in experiment [1] (setting [15]). For the same compound, the “T/C × 100 (Percent)” value in experiment [1] (setting [10]) turned out to be 130%; in experiment [1] (setting [11]), 135%; in experiment [1] (setting [12]) it was 165%; in experiment [1] (setting [13]) it was 165%; in experiment [1] (setting [14]) it was 175%; in experiment [1] (setting [15]), 170%.
On to `C(=NNC1=NCCN1)c1c2ccccc2c(C=NNC2=NCCN2)c2c1ccc1ccccc12` [Bis(2-imidazolin-2-ylhydrazone) of benz[a]anthracene-7,12-dicarboxaldehyde], for which the “Median Survival” value in experiment [2] (setting [16]) stood at 22.0 days; in experiment [2] (setting [17]), 25.0 days; in experiment [2] (setting [18]), 30.5 days; in experiment [2] (setting [19]), 31.0 days. For the same compound, the “T/C × 100 (Percent)” value came to 133% in experiment [2] (setting [16]), 152% in experiment [2] (setting [17]), 185% in experiment [2] (setting [18]) and 188% in experiment [2] (setting [19]).
Turning to `C(=NNC1=NCCN1)c1c2ccccc2c(C=NNC2=NCCN2)c2cc3ccccc3cc12` [Bis(2-imidazolin-2-ylhydrazone)-5,12-benz[b]anthracene dicarboxaldehyde dihydrochloride], the “Median Survival” value turned out to be 15.0 days in experiment [1] (setting [10]); 15.5 days in experiment [1] (setting [20]); 18.0 days in experiment [1] (setting [21]); 18.5 days in experiment [1] (setting [22]); 22.0 days in experiment [1] (setting [23]). Also, the “T/C × 100 (Percent)” value in experiment [1] (setting [10]) was 130%; in experiment [1] (setting [20]), 135%; in experiment [1] (setting [21]) it was 157%; in experiment [1] (setting [22]), 161%; in experiment [1] (setting [23]), 191%.
Turning to `C(=NNC1=NCCN1)c1c2ccccc2c(C=NNC2=NCCN2)c2c1ccc1ccccc12` [Bis(2-imidazolin-2-ylhydrazone)-7,12-benz[a]anthracene dicarboxaldehyde dihydrochloride], the “Median Survival” value in experiment [1] (setting [10]) stood at 15.0 days; in experiment [1] (setting [20]) it was 16.0 days; in experiment [1] (setting [21]), 17.5 days; in experiment [1] (setting [22]) it was 19.0 days; in experiment [1] (setting [23]), 19.0 days. Further, the “T/C × 100 (Percent)” value in experiment [1] (setting [10]) amounted to 150%; in experiment [1] (setting [20]) it was 160%; in experiment [1] (setting [21]), 175%; in experiment [1] (setting [22]), 190%; in experiment [1] (setting [23]) it was 190%. The MIC is 16 µg/mL in experiment [3], 8 µg/mL in experiment [4], 8 µg/mL in experiment [5] and 8 µg/mL in experiment [6].
As to `C(=NNC1=NCCN1)C1c2ccccc2C(C=NNC2=NCCN2)c2c1ccc1ccccc21` (stereo not drawn) [Bis(2-imidazolin-2-ylhydrazone)-7,12-dihydro-benz[a]anthracene dicarboxaldehyde], the “Median Survival” value in experiment [1] (setting [20]) worked out at 14.5 days; in experiment [1] (setting [21]), 14 days; in experiment [1] (setting [22]) it was 16 days; in experiment [1] (setting [23]), 18 days; in experiment [1] (setting [24]), 20 days. In addition, the “T/C × 100 (Percent)” value in experiment [1] (setting [20]) was determined as 132%; in experiment [1] (setting [21]), 127%; in experiment [1] (setting [22]) it was 145%; in experiment [1] (setting [23]) it was 164%; in experiment [1] (setting [24]) it was 182%.
